≈ marks a conversion by molar mass, not a printed value. Read-outs that look alike come from different tables or passages of the source.
Legend:
[1] = tested on: Methicillin Resistant Staphylococcus aureus strain USA 300, NRS384; test: Minimum inhibitory concentration, broth micro-dilution (CLSI), S. aureus; assay type: cell-based; conditions: Staphylococcus aureus, MRSA / NRS 384 / USA300, 22 h, 35° C., 22 hours
In short: (§1)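 Ten-point 2-fold series began at 4 μg/mL in protocol 2 and 0.5 μg/mL in protocol 3, in cation-adjusted MHB plus 0.002% Tween-80. Bacteria added to OD600 0.0005 final and incubated at 35° C for 22 hours per CLSI microdilution.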

[2] = tested on: Escherichia coli MC4100 harboring the IMP4213 (E. coli IMP); test: microbe, parasite or virus in culture; assay type: cell-based; conditions: Escherichia coli, 22 h, read-out: MIC (μg/mL) E. coli IMP, E. coli MC4100 IMP4213, increased outer-membrane permeability; 35° C., 22 hours
In short: as §1

[3] = tested on: Escherichia coli ATCC 25922; test: Minimum inhibitory concentration, broth micro-dilution (CLSI), E. coli; assay type: cell-based; conditions: Escherichia coli, ATCC25922, 22 h, 35° C., 22 hours
[4] = target: T1, SpsB (Staphylococcus aureus signal peptidase) (Staphylococcus aureus, UniProt P0A070); test: cell-based; assay type: biochemical; conditions: SpsB IC50, whole-cell S. aureus (USA300 background, overexpressing SpsB) as SpsB source; fluorogenic peptide substrate, kinetic read 30 min
T1 construct: This assay uses a suspension of Staphylococcus aureus cells as a source of SpsB instead of recombinant SpsB protein; endogenous in cells; host or cells: S. aureus, USA300 background, overexpressing SpsB (whole-cell suspension from frozen pellets)
T1 sequence (P0A070 whole entry): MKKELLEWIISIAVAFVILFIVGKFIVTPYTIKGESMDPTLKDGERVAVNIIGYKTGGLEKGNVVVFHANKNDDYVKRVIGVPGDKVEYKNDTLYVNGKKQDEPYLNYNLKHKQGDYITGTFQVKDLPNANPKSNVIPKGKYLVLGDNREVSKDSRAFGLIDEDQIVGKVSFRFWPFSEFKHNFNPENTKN
In short: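 Cleavage of an internally quenched (Dabcyl)βAla-KPAKAAE(Edans) peptide, added as 20 μM solution mixed 1:1 with cells, was followed for 30 min at 340/490 nm. SpsB came from a suspension of SpsB-overexpressing USA300 S. aureus in Tween-80-containing PBS buffer. Slopes plotted against 3-fold compound dilutions gave IC50.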

[5] = MRSA USA 300 NRS384, read-out: MIC (μg/mL) S. aureus
[6] = E. coli ATCC 25922, read-out: MIC (μg/mL) E. coli
[7] = read-out: MIC (μg/mL) S. aureus, MRSA USA 300 NRS384
[8] = read-out: MIC (μg/mL) E. coli, E. coli ATCC 25922

Row | SMILES | MIC [1, 5] [µg/mL] | MIC [2] [µg/mL] | MIC [3, 6] [µg/mL] | IC50 [4] [nM] | MIC [1, 7] [µg/mL] | MIC [3, 8] [µg/mL]
1 | Cc1cc(C2CCCC2)ccc1C(=O)N[C@@H](CCN)C(=O)N(C)[C@@H]1C(=O)N[C@@H](C)C(=O)N[C@H](C(=O)NCC#N)Cc2ccc(OCCN)c(c2)-c2cc1ccc2OCCN [Compound 215] | 0.19 (≈ 0.231 µM) | 0.039 (≈ 0.0473 µM) | 1.8 (≈ 2.18 µM) | 0.97 | – | –
2 | Cc1cc(C2CC2)ccc1C(=O)N[C@@H](CCN)C(=O)N(C)[C@@H]1C(=O)N[C@@H](C)C(=O)N[C@H](C(=O)NCC#N)Cc2ccc(OCCN)c(c2)-c2cc1ccc2OCCN [Compound 216] | 1 (≈ 1.26 µM) | 0.25 (≈ 0.314 µM) | 8 (≈ 10.1 µM) | 3.3 | – | –
3 | Cc1cc(CCC(C)C)ccc1C(=O)N[C@@H](CCN)C(=O)N(C)[C@@H]1C(=O)N[C@@H](C)C(=O)N[C@H](C(=O)NCC#N)Cc2ccc(OCCN)c(c2)-c2cc1ccc2OCCN [Compound 217] | 0.094 (≈ 0.114 µM) | 0.016 (≈ 0.0194 µM) | 0.5 (≈ 0.605 µM) | 0.88 | – | –
4 | Cc1cc(CC(C)C)ccc1C(=O)N[C@@H](CCN)C(=O)N(C)[C@@H]1C(=O)N[C@@H](C)C(=O)N[C@H](C(=O)NCC#N)Cc2ccc(OCCN)c(c2)-c2cc1ccc2OCCN [Compound 218] | 0.25 (≈ 0.308 µM) | 0.031 (≈ 0.0382 µM) | 2 (≈ 2.46 µM) | 0.88 | – | –
5 | Cc1cc(CC(C)(C)C)ccc1C(=O)N[C@@H](CCN)C(=O)N(C)[C@@H]1C(=O)N[C@@H](C)C(=O)N[C@H](C(=O)NCC#N)Cc2ccc(OCCN)c(c2)-c2cc1ccc2OCCN [Compound 219] | 0.19 (≈ 0.23 µM) | 0.023 (≈ 0.0278 µM) | 1.5 (≈ 1.82 µM) | 1.9 | – | –
6 | C[C@@H]1NC(=O)[C@@H](N(C)C(=O)[C@H](CCN)NC(=O)c2ccc(C(C)(C)C)cc2C(F)F)c2ccc(OCCN)c(c2)-c2cc(ccc2OCCN)C[C@@H](C(=O)NCC#N)NC1=O [Compound 220] | – | 0.047 (≈ 0.0554 µM) | – | 1.5 | 0.25 (≈ 0.295 µM) | 2.5 (≈ 2.95 µM)
7 | CCCCCCCCc1ccc(C(=O)N[C@@H](CCN)C(=O)N(C)[C@@H]2C(=O)N[C@@H](C)C(=O)N[C@H](C(=O)NCC#N)Cc3ccc(OCCN)c(c3)-c3cc2ccc3OCCN)c(C(F)F)c1 [Compound 221] | 0.063 (≈ 0.0697 µM) | 0.023 (≈ 0.0254 µM) | 0.19 (≈ 0.21 µM) | 1.3 | – | –
8 | CCCCCCCCc1ccc(C(=O)N[C@@H](CCN)C(=O)N(C)[C@@H]2C(=O)N[C@@H](C)C(=O)N[C@H](C(=O)NCC#N)Cc3ccc(OCCN)c(c3)-c3cc2ccc3OCCN)c(N)c1 [Compound 223] | 0.031 (≈ 0.0357 µM) | 0.016 (≈ 0.0184 µM) | 0.25 (≈ 0.288 µM) | 1.5 | – | –
9 | CCCCCCCc1cc(Cl)c(C(=O)N[C@@H](CCN)C(=O)N(C)[C@@H]2C(=O)N[C@@H](C)C(=O)N[C@H](C(=O)NCC#N)Cc3ccc(OCCN)c(c3)-c3cc2ccc3OCCN)c(Cl)c1 [Compound 226] | 0.094 (≈ 0.103 µM) | 0.012 (≈ 0.0132 µM) | 0.38 (≈ 0.418 µM) | 0.88 | – | –
10 | CCCCc1ccc(C(=O)N[C@@H](CCN)C(=O)N(C)[C@@H]2C(=O)N[C@@H](C)C(=O)N[C@H](C(=O)NCC#N)Cc3ccc(OCCN)c(c3)-c3cc2ccc3OCCN)cn1 [Compound 227] | 1.5 (≈ 1.88 µM) | 0.38 (≈ 0.476 µM) | 16 (≈ 20 µM) | 5.5 | – | –
11 | CCCCCc1ccc(C(=O)N[C@@H](CCN)C(=O)N(C)[C@@H]2C(=O)N[C@@H](C)C(=O)N[C@H](C(=O)NCC#N)Cc3ccc(OCCN)c(c3)-c3cc2ccc3OCCN)c(C2CC2)c1 [Compound 229] | 0.047 (≈ 0.0552 µM) | 0.016 (≈ 0.0188 µM) | 1.5 (≈ 1.76 µM) | 0.92 | – | –
12 | CCCCc1cc(C)c(C(=O)N[C@@H](CCCN)C(=O)N(C)[C@@H]2C(=O)N[C@@H](C)C(=O)N[C@H](C(=O)NCC#N)Cc3ccc(OCCN)c(c3)-c3cc2ccc3OCCN)c(C)c1 [Compound 230] | 0.38 (≈ 0.452 µM) | 0.031 (≈ 0.0369 µM) | 4 (≈ 4.76 µM) | 1.3 | – | –
13 | CCCCCCCCCCCC(=O)N[C@@H](CO)C(=O)N(C)[C@@H]1C(=O)N[C@@H](C)C(=O)N[C@H](C(=O)NCC#N)Cc2ccc(OCCN)c(c2)-c2cc1ccc2OCCN [Compound 231] | 0.13 (≈ 0.161 µM) | 0.063 (≈ 0.0781 µM) | 8 (≈ 9.91 µM) | 0.57 | – | –
14 | CCCCCCCCCC(=O)N[C@@H](CO)C(=O)N(C)[C@@H]1C(=O)N[C@@H](C)C(=O)N[C@H](C(=O)NCC#N)Cc2ccc(OCCN)c(c2)-c2cc1ccc2OCCN [Compound 232] | 1.5 (≈ 1.93 µM) | 0.25 (≈ 0.321 µM) | > 64 | 2.4 | – | –
15 | C[C@@H]1NC(=O)[C@@H](N(C)C(=O)[C@H](CO)NC(=O)c2ccc(-c3ccc(Cl)cc3)cc2)c2ccc(OCCN)c(c2)-c2cc(ccc2OCCN)C[C@@H](C(=O)NCC#N)NC1=O [Compound 233] | – | 0.13 (≈ 0.155 µM) | – | 4 | 0.5 (≈ 0.596 µM) | 32 (≈ 38.1 µM)
16 | C[C@@H]1NC(=O)[C@@H](N(C)C(=O)[C@H](CO)NC(=O)c2cnc(-c3ccc(Cl)cc3)nc2)c2ccc(OCCN)c(c2)-c2cc(ccc2OCCN)C[C@@H](C(=O)NCC#N)NC1=O [Compound 234] | – | 0.25 (≈ 0.297 µM) | – | 3.9 | 1 (≈ 1.19 µM) | 32 (≈ 38 µM)
17 | CCCCCCCCc1ccc(C(=O)N[C@@H](CO)C(=O)N(C)[C@@H]2C(=O)N[C@@H](C)C(=O)N[C@H](C(=O)NCC#N)Cc3ccc(OCCN)c(c3)-c3cc2ccc3OCCN)c(C)c1 [Compound 235] | 0.094 (≈ 0.11 µM) | 0.012 (≈ 0.014 µM) | 1 (≈ 1.17 µM) | 0.98 | – | –
18 | CCCCCCCCCC(=O)N[C@@H](CC(N)=O)C(=O)N(C)[C@@H]1C(=O)N[C@@H](C)C(=O)N[C@H](C(=O)NCC#N)Cc2ccc(OCCN)c(c2)-c2cc1ccc2OCCN [Compound 236] | 1 (≈ 1.24 µM) | 1.5 (≈ 1.86 µM) | > 64 | 1.5 | – | –
19 | CCCCCCc1ccc(C(=O)N[C@@H](CC(N)=O)C(=O)N(C)[C@@H]2C(=O)N[C@@H](C)C(=O)N[C@H](C(=O)NCC#N)Cc3ccc(OCCN)c(c3)-c3cc2ccc3OCCN)c(C)c1 [Compound 237] | 0.13 (≈ 0.152 µM) | 0.094 (≈ 0.11 µM) | 16 (≈ 18.7 µM) | 1.1 | – | –
20 | CCCCCCCCc1ccc(C(=O)N[C@@H](CC(N)=O)C(=O)N(C)[C@@H]2C(=O)N[C@@H](C)C(=O)N[C@H](C(=O)NCC#N)Cc3ccc(OCCN)c(c3)-c3cc2ccc3OCCN)c(C)c1 [Compound 239] | 0.047 (≈ 0.0533 µM) | 0.094 (≈ 0.107 µM) | 3 (≈ 3.4 µM) | 0.74 | – | –
21 | CCCCCCCCCCCC(=O)N[C@@H](C)C(=O)N(C)[C@@H]1C(=O)N[C@@H](C)C(=O)N[C@H](C(=O)NCC#N)Cc2ccc(OCCN)c(c2)-c2cc1ccc2OCCN [Compound 241] | 0.13 (≈ 0.164 µM) | 0.063 (≈ 0.0796 µM) | 6 (≈ 7.59 µM) | 1.4 | – | –
22 | CCCCCCCCc1ccc(C(=O)N[C@@H](C)C(=O)N(C)[C@@H]2C(=O)N[C@@H](C)C(=O)N[C@H](C(=O)NCC#N)Cc3ccc(OCCN)c(c3)-c3cc2ccc3OCCN)c(C)c1 [Compound 243] | 0.094 (≈ 0.112 µM) | 0.031 (≈ 0.0369 µM) | 1.5 (≈ 1.79 µM) | 1.3 | – | –
23 | CCCCCCCCCCCC(=O)N[C@@H](CCC(N)=O)C(=O)N(C)[C@@H]1C(=O)N[C@@H](C)C(=O)N[C@H](C(=O)NCC#N)Cc2ccc(OCCN)c(c2)-c2cc1ccc2OCCN [Compound 244] | 0.13 (≈ 0.153 µM) | 0.19 (≈ 0.224 µM) | 48 (≈ 56.6 µM) | 1 | – | –
24 | CCCCc1ccc(C(=O)N[C@@H](CCC(N)=O)C(=O)N(C)[C@@H]2C(=O)N[C@@H](C)C(=O)N[C@H](C(=O)NCC#N)Cc3ccc(OCCN)c(c3)-c3cc2ccc3OCCN)c(C)c1 [Compound 245] | 1 (≈ 1.19 µM) | 0.38 (≈ 0.452 µM) | > 64 | 6.3 | – | –
25 | CCCCCCc1ccc(C(=O)N[C@@H](CCC(N)=O)C(=O)N(C)[C@@H]2C(=O)N[C@@H](C)C(=O)N[C@H](C(=O)NCC#N)Cc3ccc(OCCN)c(c3)-c3cc2ccc3OCCN)c(C)c1 [Compound 246] | 0.13 (≈ 0.15 µM) | 0.063 (≈ 0.0726 µM) | 16 (≈ 18.4 µM) | 1.1 | – | –
26 | CCCCc1ccc(-c2ccc(C(=O)N[C@@H](CO)C(=O)N(C)[C@@H]3C(=O)N[C@@H](C)C(=O)N[C@H](C(=O)NCC#N)Cc4ccc(OCCN)c(c4)-c4cc3ccc4OCCN)cc2)cc1 [Compound 249] | 0.13 (≈ 0.151 µM) | 0.012 (≈ 0.0139 µM) | 0.69 (≈ 0.801 µM) | 1.2 | – | –
27 | C[C@@H]1NC(=O)[C@@H](N(C)C(=O)[C@H](CO)NC(=O)c2ccc(-c3ccc(Cl)cc3)nc2)c2ccc(OCCN)c(c2)-c2cc(ccc2OCCN)C[C@@H](C(=O)NCC#N)NC1=O [Compound 250] | – | 0.25 (≈ 0.297 µM) | – | 7 | 1 (≈ 1.19 µM) | 64 (≈ 76.2 µM)
28 | CCCCCCCCCCCC(=O)N[C@@H](CCC(=O)O)C(=O)N(C)[C@@H]1C(=O)N[C@@H](C)C(=O)N[C@H](C(=O)NCC#N)Cc2ccc(OCCN)c(c2)-c2cc1ccc2OCCN [Compound 253] | 2 (≈ 2.36 µM) | 2 (≈ 2.36 µM) | > 64 | 12 | – | –

Reference: patent US20180327367A1, “MACROCYCLIC BROAD SPECTRUM ANTIBIOTICS” (priority 2015, published 2018)
